The nature of data set [1]: Pharmacokinetics in mice and rats (plasma, liver, brain). The data set is classed as in vivo. To be noted: rodents. As for the experimental part: Pharmacokinetics of the test material in C57BL/6JBomTac mice and NTac:SD rats were determined via UHPLC-ESI Triple Quad MSMS in plasma from non-fasted animals. The test material (40 mg/kg test material) was administered via oral gavage and 4-, 8-, 12- and 24-hours after administration blood was collected. Test material levels were determined in liver and brain from non-fasted Crl:CD (SD) rats administered the test material (40 mg/kg test material), once daily for 3 weeks, via oral gavage. The test material was extracted in acetonitrile and levels determined using UHPLC-ESI Triple Quad MSMS.

For data set [2], the target named is T1, PP2C-mediated dephosphorylation of p-T172 of human recombinant AMPKα, -β, and -γ trimers (Homo sapiens, UniProt P54619+P54646+Q9Y478).
T1 construct: purchased Life Technologies (AMPK trimer); Abcam (PP2Ca) PV4674 (Lot 1261361B); ab51205-100 (Lot GR54133-5)
T1 sequence (P54646 whole entry): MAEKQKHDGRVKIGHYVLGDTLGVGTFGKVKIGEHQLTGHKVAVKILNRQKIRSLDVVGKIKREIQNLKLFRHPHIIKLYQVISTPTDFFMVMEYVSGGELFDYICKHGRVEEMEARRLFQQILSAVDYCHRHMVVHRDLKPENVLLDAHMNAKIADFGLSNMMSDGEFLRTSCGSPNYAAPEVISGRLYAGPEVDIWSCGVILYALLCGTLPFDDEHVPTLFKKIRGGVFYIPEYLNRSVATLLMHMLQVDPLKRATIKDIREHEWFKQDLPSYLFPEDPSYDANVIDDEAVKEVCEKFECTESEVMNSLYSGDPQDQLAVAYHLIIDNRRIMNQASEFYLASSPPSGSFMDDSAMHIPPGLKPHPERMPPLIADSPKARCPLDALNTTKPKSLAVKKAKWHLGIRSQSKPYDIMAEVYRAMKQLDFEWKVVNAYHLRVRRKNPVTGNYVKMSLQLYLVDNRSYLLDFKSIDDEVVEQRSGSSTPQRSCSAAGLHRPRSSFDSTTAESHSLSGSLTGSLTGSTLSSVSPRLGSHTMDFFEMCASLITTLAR
T1 sequence (Q9Y478 2-270): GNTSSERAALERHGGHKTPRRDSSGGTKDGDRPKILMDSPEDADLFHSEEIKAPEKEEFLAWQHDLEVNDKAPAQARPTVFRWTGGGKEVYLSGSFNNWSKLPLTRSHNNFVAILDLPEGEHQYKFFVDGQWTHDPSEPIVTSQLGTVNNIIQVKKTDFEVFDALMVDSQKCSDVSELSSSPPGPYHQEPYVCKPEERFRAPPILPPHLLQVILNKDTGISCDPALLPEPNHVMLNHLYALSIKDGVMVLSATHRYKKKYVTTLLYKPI
T1 sequence (P54619 whole entry): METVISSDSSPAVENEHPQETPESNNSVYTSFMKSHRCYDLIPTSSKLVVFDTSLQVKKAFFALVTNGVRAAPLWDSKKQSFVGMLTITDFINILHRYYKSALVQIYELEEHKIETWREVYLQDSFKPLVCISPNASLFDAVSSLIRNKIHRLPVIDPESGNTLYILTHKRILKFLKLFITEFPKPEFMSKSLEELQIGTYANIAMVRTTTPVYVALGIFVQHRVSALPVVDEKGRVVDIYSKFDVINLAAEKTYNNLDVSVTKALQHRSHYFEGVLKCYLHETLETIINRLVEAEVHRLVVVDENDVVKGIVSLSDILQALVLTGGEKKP
Briefly: AMPK in vitro de-phosphorylation assay. In kind it is biochemical. The procedure:
(§1) AMPKα2/β1/γ1 trimer (Life Technologies #PV4674, Lot 1261361B) (1 ng/μl) was incubated with 10 μM test material, 20 μM test material or 150 μM ADP (Sigma #A2754) +/−1 mM ATP (Sigma #A1852-1VL) in buffer (40 mM Hepes, 0.5 mM DTT, 0.2 mg/ml Gelatin (Sigma #G7041) and 0.4% DMSO), +/−PP2Ca (0.25-0.75 ng/μl) (Abcam ab51205-100; Lot GR54133-5) and 5 mM MnCl2 (total volume 20 μl). AMPKα2/β1/γ1+/−ATP was preincubated with the test material and ADP for 2 minutes at 30° C. before addition of PP2C/MnCl2 to start the dephosphorylation reaction which continued for 10-15 minutes at 30° C. Reactions were terminated by the addition of 0.17% BSA, 13 mM EDTA, 1.3×XT Sample buffer and 0.67% β-Mercaptoethanol in PBS. Samples were placed on ice, 5 minutes, heated at 100° C. for 5 minutes and chilled before run on a western gel. All steps were performed in high quality low-protein-binding eppendorf tubes. In a separate experiment 10 μM test material, 20 μM test material, 150 μM ADP alone or the combination of 10 μM test material+150 μM ADP and 20 μM test material+150 μM ADP was incubated with 1 ng/μl of AMPKα2/β1/γ1 or AMPKα1/β1/γ1 (Life Technologies #PV4672) trimer in buffer (40 mM Hepes, 0.5 mM DTT, 0.2 mg/ml gelatin and 0.4% DMSO)+/−0.25-0.5 ng/μl PP2Ca and 5 mM MnCl2 or 5 mM MgCl2. AMPK was sequentially preincubated with the test material and ADP or the combination for 2 minutes at 30° C. before sequential addition of PP2C/MnCl2 or PP2C/MgCl2 to start the dephosphorylation reaction which continued for 5-15 minutes at 30° C. The reaction was thereafter terminated and analysed as above.

Data set [3] deals with PP2C-mediated dephosphorylation of p-T172 of human recombinant AMPKα, -β, and -γ trimers. Briefly: AMPK in vitro de-phosphorylation assay. The data set is classed as biochemical. To be noted: with 150 μM ADP. The procedure: as §1
The subject of data set [4] is Wi-38 human lung fibroblast cells. The data set can be described thus: Determination of cellular ATP content. In kind it is cell-based. Particulars: 16 hours; dose-dependent. As for the experimental part: Wi-38 human lung fibroblast cells were stimulated with test material for 16 hours. Thereafter ATP content were determined with the ATP bioluminescence assay kit HS II (Roche Applied Science #11699709001) according to manufacturer's recommendations. The ATP data were normalised to cellular protein determined using BCA protein assay kit (Pierce #23225).

The next data set deals with rat skeletal L6 myotubes. Briefly: Glucose uptake in L6 myotubes. In kind it is cell-based. Particulars: 2.5, 5, 10 μM; absence of insulin; siAMPKα1/α2. The procedure: Rat L6 skeletal muscle cells grown in high-glucose (4.5 g/L) Dulbecco's Modified Eagle Medium (Gibco #31966), 10% fetal bovine serum (Gibco #10500-064) and 25 μg/ml gentamicin (Gibco 1 #5750) were induced to differentiate, by reducing the serum concentration to 2% for 14 days by which time the majority of myoblast had differentiated to myotubes. Myotubes were rinsed in serum-free low-glucose (1 g/L) DMEM (Gibco a #21885), treated with vehicle control, 2.5, 5 and 10 μM test material (serum-free low-glucose DMEM, 0.1% DMSO) for 2 hours, rinsed in serum-free DMEM w/o glucose (Gibco #11966) and thereafter incubated with the same for 20 minutes before addition of 1 μCi 2-Deoxy-D-glucose (2-DG) (Perkin Elmer #NET549A250UC) for 10 minutes. The cells were rinsed 3 times in serum-free DMEM w/o glucose and lysed in 1 ml RIPA buffer (150 mM Sodiumchloride, 1% NP40, 0.5% Sodiumdeoxycholate, 0.1% SDS, 50 mM Tris pH8.0). 300 μl were added to 4 ml liquid scintillation cocktail (Perkin Elmer #1200-437) before counted, 1 minute, in a Wallac 1414 beta counter. CPM was converted to arbitrary units by setting vehicle control as 1. […]

Take `O=C(Nc1nc(=O)n(Cc2ccc(Cl)cc2)s1)c1ccc(Cl)cc1` [test material, 4-chloro-N-[2-[(4-chlorophenyl)methyl]-3-oxo-1,2,4-thiadiazol-5-yl]benzamide]: in data set [1], the blood-brain barrier crossing entry is “does not cross the blood-brain barrier”, the oral availability result was “orally available” and the plasma half-life entry is “long”. Further, the “PP2C-mediated dephosphorylation of p-T172 AMPK” value in data set [2] (absence of ATP) is “suppressed”. Moreover, in data set [2] (presence of excess ATP (1.0 mM)), the “dephosphorylation of pAMPK” value was “protected pAMPK from dephosphorylation”. For the same compound, in data set [3], the “effect together with ADP on pAMPK dephosphorylation” value is given as “acted in an additive manner with ADP”. The ATP/protein ratio entry in data set [4] is “increased”. Besides, the “2-Deoxy-D-glucose (2-DG) uptake” value in the data set on rat skeletal L6 myotubes is “increased 2-Deoxy-D-glucose (2-DG) uptake in a dose- and AMPK-dependent manner”.

The values above are taken from patent US20220023269A1, “Methods Of Treating Diabetes In Severe Insulin-Resistant Diabetic Subjects” (Balticgruppen Bio AB, priority 2018, published 2022).
